The source of these data is US7910597B2, “Substituted quinazolines” (Shire LLC, priority 2006, dated 2011).

A short description of data set [1]: In vitro metabolic stability in human hepatocytes. Format: in vitro ADME. An excerpt:
(§1) This comparatively longer half-life for 3,3 dimethyl anagrelide observed in the dog was mirrored in an in vitro metabolic stability study in which it was clearly much more metabolically stable than anagrelide (see table below). Hepatic metabolism is known to be the principal mechanism of clearance of anagrelide in both animals and in man.

The target in data set [2] is human phosphodiesterase III (PDE III). Description: In vitro PDE III inhibition (human enzyme). Format: biochemical.
Data set [3] relates to megakaryocytopoiesis (human cell-line). In words: In vitro anti-megakaryocytic activity in a model of megakaryocytopoiesis (human cell-line). Format: cell-based. The procedure: Assessment of the in vitro anti-megakaryocytic activity—and potentially therefore the platelet lowering capability—of the 3-substituted analogues of anagrelide was conducted using a well established model of megakaryocytopoiesis (Cohen-Solal et at, Thromb. Haemost. 1997, 78:37-41 and Cramer et al, Blood, 1997, 89:2336-46). It can be readily seen that with anagrelide the benefit ratio (therapeutic to adverse effects) was comparatively low at 0.024:1 (after accounting for the predominant exposure to the cardioactive metabolite in vivo).

Data set [4] deals with dog heart rate. Description: In vivo cardiovascular effects on dog heart rate. From the text:
(§2) A comparison of the in vivo cardiovascular effects of anagrelide, its active metabolite and a representative example of an improved analogue shown in the table below:—

A short description of data set [5]: In vitro metabolic stability in dog hepatocytes. It counts as in vitro ADME.
Text: as §1

Data set [6] can be described thus: Pharmacokinetics in the conscious dog model. Format: in vivo. The note with it: geometric mean ± % CV. The procedure:
A comparison of the pharmacokinetic profile in the dog of anagrelide and a representative 3-substituted analogue is shown below:—
Comparative Pharmacokinetics of Anagrelide, its Resultant Active Metabolite and a Representative 3-Substituted Analogue Follow 1 mg/kg iv in the Conscious Dog Model

The nature of data set [7]: Solubility in test media, saturated solutions, HPLC. It counts as physicochemical. To be noted: ca. 20° C.; for solubility at 20 min: thermodynamic from solid. The method, then: Solubility studies were carried out on a number of anagrelide derivatives according to the present invention in various test media. The test media were; • a) singly distilled water (pH 5.0)—note no attempt was made to remove dissolved CO2. • b) 50 mM ammonium formate (pH 7.9) • c) 0.1 M hydrochloric acid (pH 0.6)
Calibration plots of HPLC peak area vs. concentration were obtained in MeOH or MeOH/DMSO over the range 1000-1 μg/ml for each substance at a temperature 20-22° C. The HPLC method used a reverse phase C18 column with a water (0.6% formic acid) and acetonitrile gradient. For the solubility studies, saturated solutions were prepared by dissolving in the desired medium with the aid of an ultrasonic bath for 20 minutes and the excess solid removed by centrifugation. The concentration of the substance in the supernatant liquid was determined from the measured peak area.

The subject of data set [8] is megakaryocytopoiesis (human cell-line). The note with it: background; cited from earlier work.
For data set [9] the following is noted: cited from earlier work.
For data set [10], the system named is human phosphodiesterase III (PDE III). The note with it: background, cited from earlier work; for IC50: read-out: IC50 as PDE III inhibitor.
Data set [11] deals with erythroid or myelomonocytic differentiation. The note with it: stimulated by erythropoietin or granulocyte-macrophage colony-stimulating factor; cited from earlier work.
For data set [12], the system named is heart rate. In words: In vivo cardiovascular effects on dog heart rate. To be noted: in vivo.
Text: as §2

The mark [13] stands for this setting: Example 1 table, read-out: IC50 for PDE III inhibition (cardiovascular effects).
[14] abbreviates: read-out: In vitro IC50 for PDE III inhibition (human enzyme).
Where [15] appears, read: Example 1 table, read-out: IC50 for anti-megakaryocytic (platelet lowering) activity.
[16] abbreviates: read-out: In vitro IC50 for anti-megakaryocytic effects (human cell-line).

Counter-ions that a name gives are not always drawn. Like-named read-outs stand apart in the source and are kept apart here. Some results are limits rather than exact numbers.

Take `CC1(C)C(=O)NC2=Nc3ccc(Cl)c(Cl)c3CN21` [3,3 dimethyl anagrelide, 3,3-dimethylanagrelide]: in [1], the “In vitro "half-life" in human hepatocytes” value is 22.8 h. Also, the IC50 in [2] (setting [13]) is 166 nM. Besides, the IC50 in data set [2] (setting [14]) was determined as 164 nM. Besides, the IC50 in data set [3] (setting [15]) stood at 164 nM. Further, the IC50 in [3] (setting [16]) came out at 166 nM. Moreover, in [4], the “In vivo ED20 for effects on dog heart rate” value (“In vivo ED20 for effects” below) is 2,512 μg/kg and the “In vivo ED50 for effects on dog heart rate” value is recorded as 3,557 ug/kg μg/kg. Further, the “In vitro "half-life" in dog hepatocytes” value in data set [5] is given as “No apparent degradation”. For the same molecule, in data set [6] (1 mg/kg), the “AUC(0-t)” value stood at 1903 ± 47 ng·h/mL, the Cmax was 167 ± 33 ng/mL and the T1/2 turned out to be 9.39 h. In data set [6] (after 1 mg/kg iv), the CL was determined as 2.97 ± 0.765 mL/min/kg and the Vss worked out at 1.967 ± 0.024 L/kg.

For `O=C1[N-]C2=Nc3ccc(Cl)c(Cl)c3CN2C12CC2.[Na+]` [3,3,Spiro-Cyclopropyl-anagrelide sodium salt], the “Solubility in hydrochloric acid (0.1M, pH 0.6)” value (“Solubility in hydrochloric acid” below) in data set [7] (0.1M HCl, pH 0.6) was determined as 28 μg mL^−1. Moreover, the “Solubility in ammonium formate (50 mM, pH 7.9)” value (“Solubility in ammonium formate” for short) in data set [7] (ammonium formate 50 mM, pH 7.9) is reported as 1 μg mL^−1. Also, the “Solubility in water (pH 5.0)” value in [7] (singly distilled water, pH 5.0) turned out to be 542 μg mL^−1.

Turning to `Br.CC1(C)C(=O)NC2=Nc3ccc(Cl)c(Cl)c3CN21` [3,3-Dimethylanagrelide hydrobromide], the “Solubility in hydrochloric acid” value in data set [7] (0.1M HCl, pH 0.6) was 215 μg mL^−1. In addition, in [7] (ammonium formate 50 mM, pH 7.9), the “Solubility in ammonium formate” value came out at 4 μg mL^−1. The “Solubility in water (pH 5.0)” value in data set [7] (singly distilled water, pH 5.0) was found to be 20 μg mL^−1.

Regarding `CC1(C)C(=O)[N-]C2=Nc3ccc(Cl)c(Cl)c3CN21.[Na+]` [3,3-Dimethylanagrelide sodium salt], the “Solubility in hydrochloric acid” value in [7] (0.1M HCl, pH 0.6) is recorded as 212 μg mL^−1. Besides, the “Solubility in ammonium formate” value in [7] (ammonium formate 50 mM, pH 7.9) was found to be 6 μg mL^−1. In addition, the “Solubility in water (pH 5.0)” value in data set [7] (singly distilled water, pH 5.0) was 409 μg mL^−1.

Regarding `Br.O=C1NC2=Nc3ccc(Cl)c(Cl)c3CN2C12CC2` [3,3-spiro-Cyclopropyl-anagrelide hydrobromide], the “Solubility in hydrochloric acid” value in data set [7] (0.1M HCl, pH 0.6) is listed as 35 μg mL^−1. Moreover, in data set [7] (ammonium formate 50 mM, pH 7.9), the “Solubility in ammonium formate” value is listed as 1 μg mL^−1. Moreover, the “Solubility in water (pH 5.0)” value in data set [7] (singly distilled water, pH 5.0) was 2 μg mL^−1.

For the molecule `C=c1c(=O)[n-]c2n1Cc1c(ccc(Cl)c1Cl)N=2.[Na+]` [3-Methyleneanagrelide Na salt], the “Solubility in hydrochloric acid” value in data set [7] (0.1M HCl, pH 0.6) is listed as 189 μg mL^−1. Further, the “Solubility in ammonium formate” value in [7] (ammonium formate 50 mM, pH 7.9) worked out at 39 μg mL^−1. In addition, the “Solubility in water (pH 5.0)” value in data set [7] (singly distilled water, pH 5.0) turned out to be 1830 μg mL^−1.

Take `C=c1c(=O)[nH]c2n1Cc1c(ccc(Cl)c1Cl)N=2` [3-Methyleneanagrelide, 3-methyleneanagrelide]: in data set [7] (0.1M HCl, pH 0.6), the “Solubility in hydrochloric acid” value is on record as 43 μg mL^−1. Also, the “Solubility in ammonium formate” value in data set [7] (ammonium formate 50 mM, pH 7.9) is listed as 5 μg mL^−1. For the same molecule, the “Solubility in water (pH 5.0)” value in data set [7] (singly distilled water, pH 5.0) worked out at 9 μg mL^−1.

Take `O=C1NC2=Nc3ccc(Cl)c(Cl)c3CN2C1O` (stereo not shown) [3-hydroxy anagrelide, 3-hydroxyanagrelide]: the “Inhibition of megakaryocytopoiesis relative to parent drug (in words)” value in [8] is reported as “no more potent than the parent drug”. Moreover, the “In vivo exposure relative to parent drug” value in data set [9] (after anagrelide treatment) is given as 2-3 fold. The Typical half-life in data set [9] (background, patients) is 2.5 h. The IC50 in [2] (setting [13]) is 0.7 nM. Also, in [2] (setting [14]), the IC50 came out at 0.7 nM. For the same molecule, the IC50 in data set [3] (setting [15]) was 44 nM. The IC50 in data set [3] (setting [16]) was 44 nM. In data set [4], the “In vivo ED20 for effects” value worked out at 7.1 µg/kg and the “In vivo ED50 for effects on dog heart rate” value is reported as 11.72 ug/kg μg/kg. Besides, in data set [6] (1 mg/kg), the “AUC(0-t)” value was determined as 179 ± 14 ng·h/mL, the Cmax is 60.1 ± 14 ng/mL and the T1/2 came to 1.57 ± 24 h. In [10] (more potent than anagrelide), the “Potency as PDE III inhibitor relative to anagrelide” value is “over 40 fold”.

As for `O=C1NC2=Nc3ccc(Cl)c(Cl)c3CN2C12CC2` [3-spirocyclo propyl anagrelide, 3,3,spiro-cyclopropyl-anagrelide], the IC50 in data set [2] (setting [13]) stood at 797 nM; in [3] (setting [15]), 547 nM.

For the molecule `C[C@@H]1C(=O)NC2=Nc3ccc(Cl)c(Cl)c3CN21` [(R)-3-methyl anagrelide], the “PDE III inhibitory activity (in words)” value in data set [2] is “significantly reduced PDE III inhibition relative to 3-OH anagrelide”. Also, the “Anti-megakaryocytic activity (in words)” value in data set [3] is listed as “good anti-megakaryocytic activity”.

Regarding `C[C@H]1C(=O)NC2=Nc3ccc(Cl)c(Cl)c3CN21` [(S)-3-methyl anagrelide], the “PDE III inhibitory activity (in words)” value in data set [2] is “significantly reduced PDE III inhibition relative to 3-OH anagrelide”. The “Anti-megakaryocytic activity (in words)” value in data set [3] is listed as “good anti-megakaryocytic activity”.

As to `O=C1CN2Cc3c(ccc(Cl)c3Cl)N=C2N1` [Anagrelide hydrochloride, 6,7-dichloro-1,5-dihydroimidazo[2,1-b]-quinazolin-2(3H)-one hydrochloride monohydrate, reference compound], the solubility at 20 min in [7] (50 mM ammonium formate, aqueous buffer, ammonium formate 50 mM, pH 7.9, read-out: Solubility in ammonium formate (50 mM, pH 7.9)) was 10 µg/mL; in data set [7] (0.1 M hydrochloric acid, simulated gastric fluid, 0.1M HCl, pH 0.6, read-out: Solubility in hydrochloric acid (0.1M, pH 0.6)), 169 µg/mL; in data set [7] (singly distilled water, pH 5.0, read-out: Solubility in water (pH 5.0)) it was 11 µg/mL.

In the case of `O=C1CN2Cc3c(ccc(Cl)c3Cl)N=C2N1` [Anagrelide, 6,7-dichloro-1,5-dihydroimidazo[2,1-b]-quinazolin-2(3H)-one hydrochloride monohydrate], the half-life was 6.62 h in [1]; 1.25 h in [5]; 1.37 h in data set [6] (in vivo, intravenous, 1 mg/kg). The First pass effect in data set [9] (background) is on record as over 50%. Moreover, in [11], the “Effect on erythroid or myelomonocytic differentiation (in words)” value is given as “does not affect erythroid or myelomonocytic differentiation”. Besides, the concentration for half-maximal inhibition (IC50) is 32 nM in data set [2] (setting [13]); 29 nM in data set [2] (setting [14]); 27 nM in data set [3] (Homo sapiens, Platelet, Example 1 table, read-out: IC50 for anti-megakaryocytic (platelet lowering) activity); 26 nM in [3] (Homo sapiens, read-out: In vitro IC50 for anti-megakaryocytic effects (human cell-line)); about 29 nM in data set [10]. In data set [4], the “In vivo ED20 for effects” value is 376 µg/kg. In addition, the 50% effective dose (ED50) in data set [12] is 0.986 mg/kg. The clearance in [6] (in vivo, after 1 mg/kg iv) is 19.3 mL/min/kg. Besides, the Vd in data set [6] (in vivo, after 1 mg/kg iv, read-out: Vss) stood at 1.011 ± 0.0038 L/kg. Further, the AUC(0-t) in data set [6] (in vivo, intravenous, 1 mg/kg, read-out: AUC(0-t)) was 101 ± 15 ng·h/mL. In data set [6] (in vivo, intravenous, 1 mg/kg, read-out: Cmax), the peak concentration (Cmax) was 48.1 ± 21 ng/mL.

As for `Cc1[nH]c(=O)c(C#N)cc1-c1ccncc1` [milrinone], in [10], the half-maximal inhibitory concentration (IC50) is 170 to 350 nM.
